Test results published in patent US8889670B2, “Heterocyclic compounds which modulate the CB2 receptor” (Boehringer Ingelheim International GmbH, priority 2009, dated 2014).
Like-named read-outs stand apart in the source and are kept apart here.

Biological target: T1, human CB2R (Homo sapiens, UniProt P34972)
T1 construct: host or cells: CHO cells
Test: CB2R mediated modulation of cAMP synthesis (forskolin-stimulated cAMP, CHO cells expressing human CB2R)
Type: cell-based
Outline: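 cAMP measured with the DiscoverX-XS kit after 30 min, 37° C. compound exposure of human CB2R-expressing CHO cells stimulated by 10 uM forskolin (1 mM IBMX, 0.25% BSA).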

[1] = agonist EC50, inhibition of forskolin-stimulated cAMP synthesis, CHO cells expressing human CB2R, mean, read-out: CB2 CAMP @ EC50 nM (mean)

T1 sequence (P34972 whole entry): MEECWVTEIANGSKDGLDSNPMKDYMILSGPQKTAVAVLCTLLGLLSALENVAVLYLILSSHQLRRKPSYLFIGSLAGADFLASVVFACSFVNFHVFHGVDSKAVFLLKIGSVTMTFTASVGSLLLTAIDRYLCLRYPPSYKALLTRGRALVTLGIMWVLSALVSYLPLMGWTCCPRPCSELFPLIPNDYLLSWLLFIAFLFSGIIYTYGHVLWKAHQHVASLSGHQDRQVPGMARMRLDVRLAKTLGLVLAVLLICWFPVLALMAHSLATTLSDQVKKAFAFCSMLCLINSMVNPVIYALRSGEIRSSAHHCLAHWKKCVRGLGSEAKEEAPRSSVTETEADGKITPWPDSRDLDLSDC

SMILES	EC50 [1]	EC50
CCc1sc(NC(=O)[C@@H]2CCCCN2C(=O)N2CCS(=O)(=O)CC2)nc1-c1ccccc1 [(S)-1-(1,1-Dioxo-1λ^6-thiomorpholine-4-carbonyl)-piperidine-2-carboxylic acid (5-ethyl-4-phenyl-thiazol-2-yl)-amide]	5.2 nM	
O=C(Nc1nc(-c2ccc(Cl)cc2)cs1)[C@@H]1CCCCN1C(=O)N1CCS(=O)(=O)CC1 [(S)-1-(1,1-Dioxo-1λ^6-thiomorpholine-4-carbonyl)-piperidine-2-carboxylic acid [4-(4-chloro-phenyl)-thiazol-2-yl]-amide]		9.9 nM
O=C(Nc1nc(-c2ccc(F)cc2)ns1)[C@@H]1CCCCN1C(=O)N1CCS(=O)(=O)CC1 [(S)-1-(1,1-Dioxo-1λ^6-thiomorpholine-4-carbonyl)-piperidine-2-carboxylic acid [3-(4-fluoro-phenyl)-[1,2,4]thiadiazol-5-yl]-amide]	22 nM	
COCC(C)(C)c1cc(NC(=O)[C@@H]2CCCCN2C(=O)N2CCS(=O)(=O)CC2)no1 [(S)-1-(1,1-Dioxo-1λ^6-thiomorpholine-4-carbonyl)-piperidine-2-carboxylic acid [5-(2-methoxy-1,1-dimethyl-ethyl)-isoxazol-3-yl]-amide]	162 nM	
O=C(Nc1nc2c(F)cccc2s1)[C@@H]1CCCCN1CC1CCOCC1 [(S)-1-(Tetrahydro-pyran-4-ylmethyl)-piperidine-2-carboxylic acid (4-fluoro-benzothiazol-2-yl)-amide]		1.3 nM
O=C(Nc1cc(C(F)(F)F)ccn1)[C@@H]1CCCCN1CC1CCOCC1 [(S)-1-(Tetrahydro-pyran-4-ylmethyl)-piperidine-2-carboxylic acid (4-trifluoromethyl-pyridin-2-yl)-amide]	290 nM	
O=C(Nc1nc(-c2ccccc2)cs1)[C@@H]1CCCCN1CC1CCOCC1 [(S)-1-(Tetrahydro-pyran-4-ylmethyl)-piperidine-2-carboxylic acid (4-phenyl-thiazol-2-yl)-amide]	9.9 nM	
CC(C)(C)c1cc(NC(=O)[C@@H]2C[C@@H](O)CCN2c2ncc(C(F)(F)F)cc2Cl)no1 [(2S,4S)-3′-Chloro-4-hydroxy-5′-trifluoromethyl-3,4,5,6-tetrahydro-2H-[1,2′]bipyridinyl-2-carboxylic acid (5-tert-butyl-isoxazol-3-yl)-amide]		0.3 nM
CC(C)(C)c1cc(NC(=O)[C@@H]2CCCCN2C(=O)C(F)(F)F)no1 [(S)-1-(2,2,2-Trifluoro-acetyl)-piperidine-2-carboxylic acid (5-tert-butyl-isoxazol-3-yl)-amide]		48 nM
